The values below come from patent publication US4254126A, “4-Carbethoxy-carbonilamino-pyrimidines and a process for their preparation” (POLI Industria Chimica S.p.A., priority 1978, dated 1981).

Common to all, as to format: in vivo
For assay [1], the system named is Passive Cutaneous Anaphylaxis. The assay is described as follows: Passive Cutaneous Anaphylaxis (PCA test) in the Rat. As to conditions: administered 5 minutes before the antigen. How it is done: The compounds of general formula (I) are all endowed with an extremely low toxicity (the DL50 per os in rats is higher than 1600 mg/kg for all the compounds) and they are rapidly absorbed through oral administration, so that the DE50 (the dosage capable of reducing the effects of the noxious stimulus by 50%) in the Passive Cutaneous Anaphylaxis Test in the rat is almost the same whether administered orally or intraperitoneally.
(a) Production of antiovalbumin reaginic serum. Male rats (COBS-CD) weighing 300 to 400 g, are immunized by intramuscular injection of 0.1 ml/kg of ovalbumin solution obtained by dissolving 20 mg of ovalbumin (Sigma) in 1 ml of saline and by intraperitoneal injection of 1 ml of pertussis vaccine (Abetin Sclavo). After eleven days the animals are killed, the blood collected and after one night at 4° C., centrifuged and sera stored at -20° C.
(b) PCA test--Male rats (COBS-CD) weighing 125 to 135 g were sensitized by two intradermal injections on the shaved back of 0.1 ml of anti-ovalbumin serum. After 24 hours, 25 mg/kg of ovalbumin and 25 mg/kg of Evans blue are injected intravenously and thirty minutes later the animals are killed, the skin of the back removed and the major and minor diameters of the two spots on the reflected skin are measured.

Assay [2] deals with gastric acid secretion. The assay is described as follows: inhibition of gastric acid secretion in pylorus ligated rats (Shay rats). The settings on record: Rattus norvegicus, po, os, 50% inhibition of gastric acid secretion, read-out: Antisecretory and antiulcer activity ED50 Shay. An excerpt: (§1) The pharmacological study of the antiulcer activity of the compounds, in accordance with the present invention, has been carried out determining the dose which inhibits the gastric acid secretion by 50% (ED50) in pylorus ligated rats (Shay rats) according to the method described by Shay et al., in Gastroenterology 26, 906, 1954, the dose which reduces by 50% (ED50) the indomethacin-induced ulcers according to the procedure described by Leet et al., in Arch. Int. Pharmacodyn. 191, 370, 1971 and the dose which reduces by 50% (ED50) the ulcers by cold and restraint according to the procedure described by Senay and Levine in Proc. Soc. Exp. Biol. Med. 124, 1221, 1967.

In assay [3] the test system is ulcers by cold and restraint. Kind of assay: ulcers by cold and restraint. The settings on record: Rattus norvegicus, po; os, 50% reduction of ulcers by cold and restraint; read-out: Antisecretory and antiulcer activity ED50 Restraint.
Description: as §1

Assay [4] has as its system indomethacin-induced ulcers. Kind of assay: indomethacin-induced ulcers. The settings on record: Rattus norvegicus, po; os, 50% reduction of indomethacin-induced ulcers; read-out: Antisecretory and antiulcer activity ED50 Indometacin.
Description: as §1

Where [5] appears, read: ip, intraperitoneal, read-out: PCA Test ED50 l.p.
Where [6] appears, read: po, os, read-out: PCA Test ED50 os.

Where two headings read alike, the source gives them in different places.

For orientation: ED50 means the dose at which the effect has come halfway, by size or by number of responders. Turning to `CCOC(=O)C(=O)Nc1cc(OC)ncn1` [Symbol 907], the ED50 in assay [1] (setting [5]) was 32 mg/kg; in assay [1] (setting [6]), 100 mg/kg; in assay [2] it was 3.2 mg/kg; in assay [3], 12 mg/kg; in assay [4] it was 4.6 mg/kg.
Consider `CCOC(=O)C(=O)Nc1cc(OC)nc(C)n1` [Symbol 913], for which the ED50 was less than 5 mg/kg in assay [1] (setting [5]); more than 100 mg/kg in assay [1] (setting [6]); 3.6 mg/kg in assay [2]; 15 mg/kg in assay [3]; 4.2 mg/kg in assay [4].
For the molecule `CCOC(=O)C(=O)Nc1cc(OC)nc(-c2ccccc2)n1` [Symbol 921], the 50% effective dose (ED50) in assay [1] (setting [5]) worked out at 30 mg/kg; in assay [1] (setting [6]), 100 mg/kg; in assay [2], 6.2 mg/kg; in assay [3], 25 mg/kg; in assay [4], 15 mg/kg.
Turning to `CCOC(=O)C(=O)Nc1cc(OCCOC)nc(C)n1` [Symbol 923], the 50% effective dose (ED50) was determined as 25 mg/kg in assay [1] (setting [5]); 70 mg/kg in assay [1] (setting [6]); 4.1 mg/kg in assay [2]; 9 mg/kg in assay [3]; 3.2 mg/kg in assay [4].
The matching figures for `CCOC(=O)C(=O)Nc1cc(OCCOCc2ccccc2)nc(C)n1` [Symbol 927]: 23 mg/kg, 80 mg/kg, 6.4 mg/kg, 16 mg/kg and 14.8 mg/kg.
Regarding `CCOC(=O)C(=O)Nc1cc(SC)nc(C)n1` [Symbol 928], the 50% effective dose (ED50) in assay [1] (setting [5]) is 30 mg/kg; in assay [1] (setting [6]) it was more than 100 mg/kg; in assay [2] it was 7.2 mg/kg; in assay [3], 14 mg/kg; in assay [4] it was 2 mg/kg.
Taken in the same sequence, the figures for `CCOC(=O)C(=O)Nc1cc(SCCOC(=O)C(=O)OCC)nc(C)n1` [Symbol 929] were 2.4 mg/kg, 18 mg/kg, 8.4 mg/kg, 18 mg/kg and 22.2 mg/kg.
Taken in the same sequence, the figures for `CCOC(=O)C(=O)Nc1cc(Cl)ncn1` [Symbol 931] were 24 mg/kg, more than 100 mg/kg, 6.3 mg/kg, 22 mg/kg and 7.2 mg/kg.
On to `CCOC(=O)C(=O)Nc1cc(OCCOC)ncn1` [Symbol 932, 4-carbethoxycarbonilamino-6-(β-methoxyethoxy)-pyrimidine], for which the 50% effective dose (ED50) in assay [1] (setting [5]) stood at 10 mg/kg; in assay [1] (setting [6]), 26 mg/kg; in assay [2] it was 2.1 mg/kg; in assay [3], 7 mg/kg; in assay [4], 3.2 mg/kg.
In the case of `CCOC(=O)C(=O)Nc1ccncn1` [Symbol 933], the median effective dose (ED50) in assay [1] (setting [5]) turned out to be 32 mg/kg; in assay [1] (setting [6]), 96 mg/kg; in assay [2], 3.8 mg/kg; in assay [3], 10 mg/kg; in assay [4] it was 4.7 mg/kg.
For the molecule `CCOC(=O)C(=O)Nc1cc(OC)nc(OC)n1` [Symbol 934], the ED50 in assay [1] (setting [5]) was 25 mg/kg; in assay [1] (setting [6]) it was more than 100 mg/kg; in assay [2] it was 4.1 mg/kg; in assay [3], 11 mg/kg; in assay [4] it was 5.6 mg/kg.
Taken in the same sequence, the figures for `CCOC(=O)C(=O)Nc1cc(SCCOC(=O)C(=O)OCC)ncn1` [Symbol 940] were 12 mg/kg, 43 mg/kg, 5.2 mg/kg, 8 mg/kg and 3.6 mg/kg.
As for `CCOC(=O)CCCSc1cc(NC(=O)C(=O)OCC)ncn1` [Symbol 953], the 50% effective dose (ED50) came to 3.2 mg/kg in assay [1] (setting [5]); 26 mg/kg in assay [1] (setting [6]); 7.2 mg/kg in assay [2]; 12 mg/kg in assay [3]; 8.8 mg/kg in assay [4].
The matching figures for `CCOC(=O)C(=O)Nc1cc(SCCOC)nc(C)n1` [Symbol 955]: 6.9 mg/kg, 25 mg/kg, 2.3 mg/kg, 7 mg/kg and 2.8 mg/kg.
Consider `CCOC(=O)C(=O)Nc1cc(SCCOC)ncn1` [Symbol 957], for which the median effective dose (ED50) in assay [1] (setting [5]) was determined as 5.8 mg/kg; in assay [1] (setting [6]), 23 mg/kg; in assay [2], 6.2 mg/kg; in assay [3] it was 14 mg/kg; in assay [4] it was 9.4 mg/kg.
As to `CCOC(=O)C(=O)Nc1cc(OCCOCCOC)ncn1` [Symbol 963], the 50% effective dose (ED50) in assay [1] (setting [5]) amounted to 6.2 mg/kg; in assay [1] (setting [6]), 24 mg/kg; in assay [2], 6.1 mg/kg; in assay [3] it was 16 mg/kg; in assay [4], 7.3 mg/kg.
The matching figures for `CCOC(=O)C(=O)Nc1cc(SCCOCCOC)ncn1` [Symbol 965]: 7.3 mg/kg, 20 mg/kg, 8.3 mg/kg, 17 mg/kg and 6.1 mg/kg.
